Source: publication PMC9090415, “Discovery of small molecule inhibitors of Plasmodium falciparum apicoplast DNA polymerase” (Journal of Enzyme Inhibition and Medicinal Chemistry, 2022)

Target: P. falciparum apicoplast DNA polymerase (Pf-apPOL) (Plasmodium falciparum, UniProt Q8ILY1)
Assay: Fluorescence-based high-throughput DNA polymerase assay (molecular beacon), primary screen and dose-response;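 on % inhibition ApPOL 90': test concentration in µM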;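 on % inhibition apPOL 180': test concentration in µM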
Type: biochemical
How it was run: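 Single-point screening used 10 µM compound with 20 nM polymerase, 20 nM hairpin substrate and 6 µM dNTPs for 90 min at 25 °C. Confirmatory titrations (2.5–80 µM) followed fluorescence at three times, and IC50 was derived from a fit including a cooperativity term n.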

[1] = supplemental file 2, sheet IC50 nontoxic compounds; Pf-apPOL

Sequence of P. falciparum apicoplast DNA polymerase (Pf-apPOL) (Q8ILY1 entry or part of it): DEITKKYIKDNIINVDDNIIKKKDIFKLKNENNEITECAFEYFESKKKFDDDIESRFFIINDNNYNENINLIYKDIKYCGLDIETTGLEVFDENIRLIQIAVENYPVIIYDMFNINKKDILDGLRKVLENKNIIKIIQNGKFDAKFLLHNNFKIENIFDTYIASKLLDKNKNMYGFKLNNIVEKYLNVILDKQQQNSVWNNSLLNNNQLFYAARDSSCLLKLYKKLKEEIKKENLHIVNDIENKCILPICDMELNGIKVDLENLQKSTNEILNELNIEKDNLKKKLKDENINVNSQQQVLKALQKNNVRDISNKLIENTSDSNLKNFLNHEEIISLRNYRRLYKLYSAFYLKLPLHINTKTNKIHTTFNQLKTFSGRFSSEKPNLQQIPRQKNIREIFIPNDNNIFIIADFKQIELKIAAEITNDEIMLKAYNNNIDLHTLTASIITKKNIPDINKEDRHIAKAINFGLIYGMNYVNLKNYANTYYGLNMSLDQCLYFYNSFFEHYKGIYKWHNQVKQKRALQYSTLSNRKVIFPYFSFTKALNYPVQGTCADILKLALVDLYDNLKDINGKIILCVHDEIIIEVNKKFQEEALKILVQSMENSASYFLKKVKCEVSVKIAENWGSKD

## COc1ccc(-c2occ(C(=O)O)c2C(=O)O)cc1 [KU0021536]
DRC-1; concentration 2.5; 10'
  % inhibition Apo pol 10': 12.66%
DRC-1; concentration 2.5; 90'
  % inhibition Apol 90': 6.208%
DRC-1; concentration 2.5; 180'
  % inhibition apPOL 180': 0.2787%
DRC-1; concentration 5; 10'
  % inhibition Apo pol 10': 21.9361%
DRC-1; concentration 5; 90'
  % inhibition Apol 90': 18.5169%
DRC-1; concentration 5; 180'
  % inhibition apPOL 180': 12.9539%
DRC-1; concentration 10; 10'
  % inhibition Apo pol 10': 43.1098%
DRC-1; concentration 10; 90'
  % inhibition Apol 90': 39.5848%
DRC-1; concentration 10; 180'
  % inhibition apPOL 180': 35.5357%
DRC-1; concentration 20; 10'
  % inhibition Apo pol 10': 66.1228%
DRC-1; concentration 20; 90'
  % inhibition Apol 90': 63.2397%
DRC-1; concentration 20; 180'
  % inhibition apPOL 180': 62.8921%
DRC-1; concentration 40; 10'
  % inhibition Apo pol 10': 86.5866%
DRC-1; concentration 40; 90'
  % inhibition Apol 90': 84.6266%
DRC-1; concentration 40; 180'
  % inhibition apPOL 180': 85.4203%
DRC-1; concentration 80 (unit not given); 10'
  % inhibition Apo pol 10': 93.5468%
DRC-1; concentration 80; 90'
  % inhibition Apol 90': 92.3135%
DRC-1; concentration 80; 180'
  % inhibition apPOL 180': 92.8082%
DRC-2; 5'; concentration 40
  % inhibition Apo pol 5': 50%
DRC-2; 40'; concentration 10
  % inhibition Apol 40': 48%
DRC-2; 90'; concentration 10
  % inhibition ApPOL 90': 50%
DRC-2; 90'; concentration 80
  % inhibition ApPOL 90': 77%
DRC-2; 180'; concentration 10
  % inhibition apPOL 180': 48%
DRC-2; 180'; concentration 40
  % inhibition apPOL 180': 77%
DRC-2; concentration 2.5; 5'
  % inhibition Apo pol 5': 7%
DRC-2; concentration 2.5; 40'
  % inhibition Apol 40': 17%
DRC-2; concentration 2.5; 90'
  % inhibition ApPOL 90': 16%
DRC-2; concentration 2.5; 180'
  % inhibition apPOL 180': 10%
DRC-2; concentration 5; 5'
  % inhibition Apo pol 5': 21%
DRC-2; concentration 5; 40'
  % inhibition Apol 40': 30%
DRC-2; concentration 5; 90'
  % inhibition ApPOL 90': 32%
DRC-2; concentration 5; 180'
  % inhibition apPOL 180': 27%
DRC-2; concentration 10; 5'
  % inhibition Apo pol 5': 34%
DRC-2; concentration 10; 40'
  % inhibition Apol 40': 48%
DRC-2; concentration 10; 90'
  % inhibition ApPOL 90': 50%
DRC-2; concentration 10; 180'
  % inhibition apPOL 180': 48%
DRC-2; concentration 20; 5'
  % inhibition Apo pol 5': 43%
DRC-2; concentration 20; 40'
  % inhibition Apol 40': 62%
DRC-2; concentration 20; 90'
  % inhibition ApPOL 90': 66%
DRC-2; concentration 20; 180'
  % inhibition apPOL 180': 67%
DRC-2; concentration 40; 5'
  % inhibition Apo pol 5': 50%
DRC-2; concentration 40; 40'
  % inhibition Apol 40': 70%
DRC-2; concentration 40; 90'
  % inhibition ApPOL 90': 75%
DRC-2; concentration 40; 180'
  % inhibition apPOL 180': 77%
DRC-2; concentration 80; 5'
  % inhibition Apo pol 5': 51%
DRC-2; concentration 80; 40'
  % inhibition Apol 40': 74%
DRC-2; concentration 80; 90'
  % inhibition ApPOL 90': 77%
DRC-2; concentration 80; 180'
  % inhibition apPOL 180': 80%
Primary screen value of the 186 hits; unit not given; 90 min, 10 µM
  DNA Pol: 29
Primary screen value; head prints only 'DNA Pol'; 90 min, 10 µM
  DNA Pol: 29

## O=C(Nc1nnc(-c2cccs2)o1)c1ccc([N+](=O)[O-])o1 [Molecule 74, O=C(c1ccc(o1)[N+](=O)[O-])Nc1nnc(o1)c1cccs1]
'DNA Pol'; screening value, unit not given; 90 min, 10 µM
  DNA Pol: 45
DRC-1; 10'; concentration 2.5
  % inhibition Apo pol 10': 6.774%
DRC-1; 10'; concentration 5
  % inhibition Apo pol 10': 8.378%
DRC-1; 10'; concentration 10
  % inhibition Apo pol 10': 26.6912%
DRC-1; 10'; concentration 20
  % inhibition Apo pol 10': 31.2083%
DRC-1; 10'; concentration 40
  % inhibition Apo pol 10': 61.6111%
DRC-1; 10'; concentration 80
  % inhibition Apo pol 10': 81.7408%
DRC-1; 90'; concentration 2.5
  % inhibition Apol 90': 1.699%
DRC-1; 90'; concentration 5
  % inhibition Apol 90': 1.687%
DRC-1; 90'; concentration 10
  % inhibition Apol 90': 13.6974%
DRC-1; 90'; concentration 20
  % inhibition Apol 90': 16.6576%
DRC-1; 90'; concentration 40
  % inhibition Apol 90': 40.7668%
DRC-1; 90'; concentration 80
  % inhibition Apol 90': 62.2777%
DRC-1; 180'; concentration 2.5
  % inhibition apPOL 180': -4.1234%
DRC-1; 180'; concentration 5
  % inhibition apPOL 180': -4.583%
DRC-1; 180'; concentration 10
  % inhibition apPOL 180': 3.855%
DRC-1; 180'; concentration 20
  % inhibition apPOL 180': 5.086%
DRC-1; 180'; concentration 40
  % inhibition apPOL 180': 25.388%
DRC-1; 180'; concentration 80
  % inhibition apPOL 180': 45.6773%
DRC-2, 5', concentration 2.5
  % inhibition Apo pol 5': 3%
DRC-2, 5', concentration 5
  % inhibition Apo pol 5': 14%
DRC-2, 5', concentration 10
  % inhibition Apo pol 5': 30%
DRC-2, 5', concentration 20
  % inhibition Apo pol 5': 41%
DRC-2, 5', concentration 40
  % inhibition Apo pol 5': 61%
DRC-2, 5', concentration 80
  % inhibition Apo pol 5': 70%
DRC-2, 40', concentration 2.5
  % inhibition Apol 40': 1.79%
DRC-2, 40', concentration 5
  % inhibition Apol 40': 13%
DRC-2, 40', concentration 10
  % inhibition Apol 40': 27%
DRC-2, 40', concentration 20
  % inhibition Apol 40': 36%
DRC-2, 40', concentration 40
  % inhibition Apol 40': 61%
DRC-2, 40', concentration 80
  % inhibition Apol 40': 78%
DRC-2, 90', concentration 2.5
  % inhibition ApPOL 90': -0.446%
DRC-2, 90', concentration 5
  % inhibition ApPOL 90': 12%
DRC-2, 90', concentration 10
  % inhibition ApPOL 90': 24%
DRC-2, 90', concentration 20
  % inhibition ApPOL 90': 32%
DRC-2, 90', concentration 40
  % inhibition ApPOL 90': 57%
DRC-2, 90', concentration 80
  % inhibition ApPOL 90': 79%
DRC-2, 180', concentration 2.5
  % inhibition apPOL 180': -3.19%
DRC-2, 180', concentration 5
  % inhibition apPOL 180': 7%
DRC-2, 180', concentration 10
  % inhibition apPOL 180': 15%
DRC-2, 180', concentration 20
  % inhibition apPOL 180': 20%
DRC-2, 180', concentration 40
  % inhibition apPOL 180': 45%
DRC-2, 180', concentration 80
  % inhibition apPOL 180': 76%
Conc 40 (unit not given); 5'; DRC-2
  % inhibition Apo pol 5': 61%
Conc 40 (unit not given); 40'; DRC-2
  % inhibition Apol 40': 61%
Primary screen hit value, DNA Pol (186 hits); 90 min, 10 µM
  DNA Pol: 45

## COc1ccc(NC(=O)Cn2ccc3c(=O)[nH]ccc32)cc1 [Molecule 13]
[1]
  IC50: 7.09 µM

## O=C(Cn1ccc2c(=O)[nH]ccc21)Nc1cc(F)ccc1F [Molecule 42]
[1]
  IC50: 12.7 µM
